From EP2045247B1, “Compounds for the inhibition of histone deacetylase” (NatureWise Biotech & Medicals Corporation, priority 2007, dated 2009)

How the values were obtained:
[1] = test system: HDAC; experiment: HDAC activity assay (fluorometric kit) on nuclear extracts of treated C6 glioma cells; type: cell-based, rat; conditions: C6 glioma cells treated 24 hours, nuclear extract, fluorescence (Fig. 6)
Method: The C6 glioma cells were treated with different doses of NBM-HD-1 and sodium butyrate (SB). After 24 hours, the cells were harvested to extract the nuclear proteins by NucBuster™ Protein Extraction Kit (Novagen) as described by the manufacturer's instructions. These extracts were then used in HDAC Activity Assay Kit (Calbiochem) to analyze their HDAC (histone deacetylase) inhibition activities. The HDAC fluorometric substrate, which comprises an acetylated lysine side chain, was incubated with extracted nuclear protein first. Deacetylation of the substrate sensitized the substrate, so that, in the second step, treatment with the Lysine Developer produced a fluorophore. The fluorophore can easily be analyzed by using a fluorescence plate reader. […] Inhibition of HDAC has been implicated in the induction of differentiation in cancer cells. In this experiment, a well-known compound for HDAC inhibition, sodium butyrate, was used as a positive control.

[2] = test system: MCF-7 cancer cells; experiment: Cell cycle analysis of MCF-7 cells by FACScan cytometry; type: cell-based, human; conditions: 0, 2.5, 5 and 10µg/mL, 72 hours (Fig. 9)
Method: (§1) 1×10^6 of rat C6 glioma cells were treated with various concentrations of NBM-HD-1 (0 µg/mL, 2.5 µg/mL, 5 µg/mL, and 10 µg/mL) for 72 hours. The treated cells were trysinized and collected. The cells were resuspended in 200 µL PBS and then fixed by adding 800 µL of cold 100% ethanol. The resulting cells were fixed overnight at -20[…]. The cell pellets were collected by centrifugation, resuspended in 1 mL of hypotonic buffer (0.5% Triton X-100 in PBS and 1 µg/mL RNase A), and incubated at 37 °C for 30 minutes. Then, 1 mL of PI solution (50 µg/mL) was added to the resulting cell pellets. The mixture was allowed to stand at 4[…] for 30 min. The DNA amounts of the cells were analyzed by FACScan Cytometry (Becton Dickinson) (see Fig. 2).
MCF-7 cancer cells (1×10^6) in a 100-mm dish were treated with various concentrations of NBM-HD-1 (0, 2.5, 5, and 10µg/mL) or 4mM sodium butyrate for 72 hours. The samples were prepared following the steps mentioned in [0063]. The DNA of the cells was then analyzed by FACScan cytometry (Becton Dickinson). […] The percentage of G0/G1 phase increased from 74.46 to 92.55 in a dose-dependent manner.

[3] = test system: rat C6 glioma cells; experiment: RT-PCR of cell cycle regulator mRNA in C6 glioma cells; type: cell-based; conditions: GAPDH internal control (Fig. 3)
Method: For the rat C6 glioma cells, the cell cycle related to mRNA expression was examined by RT-PCR. The total RNAs were isolated from the treated C6 cells by using the RNeasy Mini Kit (Qiagen) according to the manufacturer's instructions. The cDNAs were produced from 500ng of total RNAs using ReverTra-Plus-TM (TOYOBO). The RT product (1µl) was amplified by PCR with primers to analyze several genes of cell cycle by using GAPDH as an internal control. According to the results of Fig. 3, NBM-HD-1 can modulate the expression of some cell cycle regulators. […] On the contrary, the expression of p21 was increased.

[4] = test system: cortical neurons; experiment: Neurite outgrowth of cortical neurons cultivated from fetal rat neural stem cells; type: cell-based, Wistar rat; conditions: 0.63 µg/mL
Method: The growth medium for the NSCs (neural stem cells) and cortical neurons was prepared by adding penicillin G, streptomycin and 0.5 mM of L-glutamine into a B-27 supplemented neurobasal medium (Gibco). The unborn fetus was taken out of the fetal sac in the abdominal cavity of a 17-day pregnant Wistar rat under anesthesia. The cerebral tissue was removed from the fetus and treated with 0.1 % trypsin solution at 25 °C for three minutes. After washing with PBS solution 3 times, the cells were dissociated by up and down mixing. The resulting solution was passed through a 70µm Nylon cell strainer (Falcon) in order to obtain the filtrate that contained cerebral cells. The filtrate was centrifuged at 1000 rpm for 10 minutes and the supernatant was aspirated. The resulting pellet was resuspended in the growth medium prepared as stated above. The resulting suspension contained NSCs.
The cells obtained from the suspension were cultivated in 6-well plates coated with 30 µg/ml of poly-D-lysine (Sigma) at the density of 75 cells/mm^2. The cells were cultured at 37 °C, 5% CO2 and 95% relative humidity. The growth media contained 0.63 µg/mL of NBM-HD-1 and the growth media with 1 µl of DMSO was used as the control. […]
After cultivation for 6 days, live cells were observed by microscope. The lengths of the neurites of the neurons in 6 different fields were measured and averaged. […]

[5] = test system: p21; experiment: RT-PCR of p21 mRNA in MCF-7 cells; type: cell-based, human; conditions: different doses, 24 hours (Fig. 10)
Method: The cell cycle related to p21 mRNA expression was examined by RT-PCR. The total RNAs were isolated from the treated MCF-7 cells and used in the RT reaction. cDNA (1µl) was used as a template to amplify p21 gene by PCR. GAPDH was used as an internal control. […] In this experiment, MCF-7 cells were treated with different doses of NBM-HD-1 for 24 hours.

[6] = test system: GFAP; experiment: GFAP expression in C6 glioma cells (immuno-fluorescent staining and RT-PCR), differentiation marker; type: cell-based, rat
Method: After the C6 glioma cells were incubated with 10 µg/mL NBM-HD-1 for 24 hours, they were fixed and analyzed by the traditional immuno-fluorescent staining method. Staining of glia was carried out by using glial-specific GFAP antibody (SIGMA) as the primary antibody and a fluorescence labeled rabbit immuno-globulin (SIGMA) as the secondary antibody to bind with the primary antibody. The cells which are GFAP-positive were excited by a specific light source to emit fluorescence. Also, the nuclei were stained with DAPI. […] In contrast with the control group, more GFAP proteins were detected in the photos of the cells being treated with 10 µg/mL of NBM-HD-1.
The GFAP mRNA expression was examined by RT-PCR.

[7] = test system: rat C6 glioma cells; experiment: Cell cycle analysis of C6 glioma cells, DNA content by PI staining and FACScan cytometry; type: cell-based; conditions: 0, 2.5, 5 and 10 µg/mL, 72 hours (Fig. 2)
Method: as §1

Compound: COc1cc2c(c(OC)c1CCC(C)(C)O)C(=O)C[C@@H](c1ccc(OC)c(OC)c1C/C=C(\C)CCCC(C)(C)O)O2 [NBM-HD-1]
- HDAC activity [1]: significantly inhibits HDAC activity
- S and G2/M phases of the cells [2]: significantly decreased both S and G2/M phases of the cells in a dose-dependent manner
- expression of cyclinB1 [3]: decrease the expression of cyclinD1 and cyclinB1 in a dose-dependent manner
- expression of cyclinD1 [3]: decrease the expression of cyclinD1 and cyclinB1 in a dose-dependent manner
- expression of p21 [3]: increased
- average length of the neurites ([4]; 6 days, 6 different fields, versus DMSO control (Fig. 12(B))): greater than that of the control group
- neurite outgrowth ([4]; cultivation for 6 days (Fig. 12)): could promote the neurite outgrowth
- p21 mRNA expression [5]: induced the expression of p21 in a dose-dependent manner
- GFAP expression (immuno-fluorescent staining) ([6]; 10 µg/mL, 24 hours (Fig. 4(A))): can induce the GFAP expression of C6 glioma cancer cells
- GFAP mRNA expression ([6]; RT-PCR (Fig. 4(B))): increased in a dose-dependent manner
- cell cycle (DNA contents) [7]: cell cycle arrest on the G0/G1 phase in a dose-dependent manner
